Results: US20100112040A1, “Preparation of Heavy Metal-Containing Nano-Liposomes and their Uses in Medical Therapy” (S.B. BIOTECHNOLOGIES LTD., priority 2006, published 2010)
Where two headings read alike, the source gives them in different places.

Assays:
[1] = 200 μl i.p. of 2 mg/ml gold, 24 hours
Method: (§1) Balb/C mice which had tumors on their thighs (KHJJ line, breast cancer) were used in these experiments. The mice were injected i.p. with 200 μl of liposomes containing 2 mg of gold atoms per/ml solution, and after 24 hours the animals were dissected and various internal organs were harvested, which included the tumor, brain, heart, lungs, spleen, liver, kidneys, and blood. The organs were rinsed and prepared for ICP-MS analysis. In control experiments, mice were injected with a solution containing 2 mg of gold/ml without confinement in liposomes.
1. A solution of gold chloride of 2 mg/ml (2000). The gold was not confined in liposomes. 2. A gold-containing liposome solution (2000) of gold content of 2 mg/ml.

[2] = 200 μl i.p., 2 mg of gold/ml
Method: as §1

[Cl][Au]([Cl])[Cl] [gold chloride solution, gold chloride]
Gold atoms per cell ([1]; Bladder): 1.30E+10 atoms per cell | Gold atoms per cell ([1]; Blood): 1.37E+08 atoms per cell | Gold atoms per cell ([1]; Brain): 1.62E+07 atoms per cell | Gold atoms per cell ([1]; Heart): 1.63E+09 atoms per cell | Gold atoms per cell ([1]; Kidneys): 1.58E+09 atoms per cell | Gold atoms per cell ([1]; Liver): 1.88E+08 atoms per cell | Gold atoms per cell ([1]; Lungs): 1.36E+08 atoms per cell | Gold atoms per cell ([1]; Spleen): 3.34E+08 atoms per cell | Gold atoms per cell ([1]; Tumor): 1.10E+08 atoms per cell | survival of injected mice (toxicity of gold) [2]: died after 24 hours
